Measurements from US7871999B2, “Substituted thiazoles and their use for producing drugs” (Gruenenthal GmbH, priority 2005, dated 2011).

Tests used:
mGluR5 receptor [1] = target: T1, mGluR5 receptor (Sus scrofa, UniProt I3LUI7); assay: Inhibition of [^3H]-MPEP binding in the mGluR5 receptor binding assay (pig brain homogenate); conditions: 5 nM [^3H]-MPEP; for inhibition at 1 µM: 1 μM test compound; for inhibition at 10 µM: 10 μM test compound
T1 construct: pig brain hemispheres without medulla, cerebellum and pons ... differential centrifugation at 900×g and 40,000×g
T1 sequence (I3LUI7 1-1212): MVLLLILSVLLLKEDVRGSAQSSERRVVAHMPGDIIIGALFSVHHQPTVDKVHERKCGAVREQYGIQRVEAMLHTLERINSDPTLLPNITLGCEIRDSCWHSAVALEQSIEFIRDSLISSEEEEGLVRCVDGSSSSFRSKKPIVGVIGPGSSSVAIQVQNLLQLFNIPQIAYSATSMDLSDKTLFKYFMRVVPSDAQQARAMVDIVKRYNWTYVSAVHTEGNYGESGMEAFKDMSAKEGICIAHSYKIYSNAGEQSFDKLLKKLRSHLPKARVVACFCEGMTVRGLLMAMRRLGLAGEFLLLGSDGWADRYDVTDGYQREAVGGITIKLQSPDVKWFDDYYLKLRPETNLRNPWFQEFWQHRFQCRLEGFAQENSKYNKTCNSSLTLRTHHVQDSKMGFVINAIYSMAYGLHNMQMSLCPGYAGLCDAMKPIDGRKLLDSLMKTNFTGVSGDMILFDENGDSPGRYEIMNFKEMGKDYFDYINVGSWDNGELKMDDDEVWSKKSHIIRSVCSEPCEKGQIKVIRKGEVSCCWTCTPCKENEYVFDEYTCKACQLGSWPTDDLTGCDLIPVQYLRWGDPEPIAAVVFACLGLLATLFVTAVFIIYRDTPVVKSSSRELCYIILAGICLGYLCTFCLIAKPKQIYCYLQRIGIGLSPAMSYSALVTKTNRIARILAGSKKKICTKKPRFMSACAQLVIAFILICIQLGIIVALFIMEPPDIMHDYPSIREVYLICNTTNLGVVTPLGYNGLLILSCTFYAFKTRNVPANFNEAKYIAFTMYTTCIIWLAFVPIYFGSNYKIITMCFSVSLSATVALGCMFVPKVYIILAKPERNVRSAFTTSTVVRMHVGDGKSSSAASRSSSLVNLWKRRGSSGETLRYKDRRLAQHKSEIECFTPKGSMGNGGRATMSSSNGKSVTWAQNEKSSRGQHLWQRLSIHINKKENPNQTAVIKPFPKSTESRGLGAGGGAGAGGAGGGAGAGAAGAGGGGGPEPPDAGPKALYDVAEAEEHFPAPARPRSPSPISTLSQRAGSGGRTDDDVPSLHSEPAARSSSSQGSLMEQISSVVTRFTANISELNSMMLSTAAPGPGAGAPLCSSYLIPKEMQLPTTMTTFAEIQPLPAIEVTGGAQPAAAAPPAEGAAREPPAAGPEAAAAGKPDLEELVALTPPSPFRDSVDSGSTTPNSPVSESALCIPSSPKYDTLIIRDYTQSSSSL
Protocol: I. Method for Determining the Inhibition of [^3H]-MPEP Binding in the mGluR5 Receptor Binding Assay […]
The batches are then filtered with the assistance of a Brandel Cell Harvester (Brandel, Robotic 9600 model) on Unifilter plates with glass filter mats (Perkin Elmer, order number 6005177) and then washed 3 times with buffer (as above) using 250 μl per sample. The filter plates are then dried for 60 min at 55° C. Then 30 μl of Ultima Gold™ scintillating material (Packard BioScience, order number 6013159) is added per well and after 3 hours the samples are measured using the β counter (Microbeta, Perkin Elmer). Nonspecific binding is determined by the addition of 10 μM MPEP (Tocris, order number 1212).

mGluR5 receptor [2] = target: T2, mGluR5 receptor (Homo sapiens, UniProt P41594); assay: Functional Ca^2+ influx assay in the mGluR5 receptor assay (CHO-hmGluR5 cells, DHPG 10 μM); format: cell-based; conditions: Ki=IC50/(1+(AGconc./EC50))
T2 construct: host or cells: CHO cells (CHO-hmGluR5), incubated overnight with doxycycline
T2 sequence (P41594 21-1212): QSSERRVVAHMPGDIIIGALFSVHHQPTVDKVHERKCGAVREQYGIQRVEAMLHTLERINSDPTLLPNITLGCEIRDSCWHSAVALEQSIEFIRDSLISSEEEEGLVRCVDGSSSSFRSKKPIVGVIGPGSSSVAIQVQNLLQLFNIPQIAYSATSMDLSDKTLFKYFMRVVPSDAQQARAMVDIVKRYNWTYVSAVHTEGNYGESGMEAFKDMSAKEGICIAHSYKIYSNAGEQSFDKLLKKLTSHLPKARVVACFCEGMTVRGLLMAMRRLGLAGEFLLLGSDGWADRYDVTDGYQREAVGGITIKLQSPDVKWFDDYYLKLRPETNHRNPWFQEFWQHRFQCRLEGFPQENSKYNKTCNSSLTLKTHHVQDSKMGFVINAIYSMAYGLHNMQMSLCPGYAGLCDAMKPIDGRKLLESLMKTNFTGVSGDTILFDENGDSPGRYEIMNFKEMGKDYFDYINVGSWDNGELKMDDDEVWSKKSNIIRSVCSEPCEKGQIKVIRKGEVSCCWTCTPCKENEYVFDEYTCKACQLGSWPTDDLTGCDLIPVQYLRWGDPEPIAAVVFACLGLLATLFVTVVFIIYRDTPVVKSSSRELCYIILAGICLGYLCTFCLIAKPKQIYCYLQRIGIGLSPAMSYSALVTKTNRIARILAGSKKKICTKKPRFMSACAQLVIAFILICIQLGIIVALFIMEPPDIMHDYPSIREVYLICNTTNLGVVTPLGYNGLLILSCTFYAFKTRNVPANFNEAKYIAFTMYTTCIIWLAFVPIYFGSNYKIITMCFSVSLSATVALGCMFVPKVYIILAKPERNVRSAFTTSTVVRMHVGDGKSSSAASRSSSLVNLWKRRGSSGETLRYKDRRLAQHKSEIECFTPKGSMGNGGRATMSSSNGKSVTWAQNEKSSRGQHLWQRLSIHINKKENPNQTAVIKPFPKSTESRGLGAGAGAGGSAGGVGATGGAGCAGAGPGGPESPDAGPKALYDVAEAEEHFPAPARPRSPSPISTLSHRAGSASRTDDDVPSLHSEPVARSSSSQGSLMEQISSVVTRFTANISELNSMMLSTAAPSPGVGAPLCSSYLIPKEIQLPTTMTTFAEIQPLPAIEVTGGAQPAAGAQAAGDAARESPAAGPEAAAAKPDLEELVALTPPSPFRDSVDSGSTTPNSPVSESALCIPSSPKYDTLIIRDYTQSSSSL
Description: II. Method for Determining Ca^2+ Influx in the mGluR5 Receptor Assay
[…] According to this assay, intracellular Ca^2+ release is quantified after activation of the mGluR5 receptor with the assistance of a Ca^2+-sensitive dye (type Fluo-4, Molecular Probes Europe BV, Leiden, Netherlands) in a FlexStation (Molecular Devices, Sunnyvale, USA).
Description of the Functional Ca^2+ Influx Assay
20,000 CHO-hmGluR5 cells/well (Euroscreen, Gosselies, Belgium) are pipetted out into 96 well plates (BD Biosciences, Heidelberg, Germany, Ref. 356640, clear bottom, 96 well, poly-D-lysine) and incubated overnight in HBSS buffer (Gibco No. 14025-050) with the following additives: 10% FCS (GIBCO, 10270-106) and doxycycline (BD Biosciences Clontech 631311 600 ng/ml).
For the purpose of functional investigation, the cells were loaded with 2 μM Fluo-4 and 0.01 vol. % Pluronic F127 (Molecular Probes Europe BV, Leiden, Netherlands) in HBSS buffer (Hank's buffered saline solution, Gibco Invitrogen GmbH, Karlsruhe, Germany) with Probenicid (Sigma P8761, 0.69 mg/ml) for 30 min at 37° C.
The cells are then washed 3 times with washing buffer (HBSS buffer, Gibco No. 14025-050, with Probenicid (Sigma P8761, 0.69 mg/ml) and then resuspended with the same buffer to make up to 100 μl. After 15 min, the plates are transferred for determination of Ca^2+ measurements in the presence of DHPG ((S)-3,5-dihydroxyphenylglycine, Tocris Biotrend Chemikalien GmbH, Cologne, Germany, final DHPG concentration: 10 μM) and in the presence or absence of test substances into a FLuorometric Imaging Plate Reader (FLIPR, Molecular Devices, Sunnyvale, Calif.).
Ca^2+-dependent fluorescence is measured before and after addition of test substances. Quantification proceeds by measuring the highest fluorescence intensity over time.
After recording a fluorescence baseline for 10 s, 50 μl of test substance solution (various test substance concentrations in HBSS buffer with 1% DMSO and 0.02% Tween 20, Sigma) are added and the fluorescence signal is measured for 6 min. Then, 50 μl of DHPG solution ((S)-3,5-dihydroxyphenylglycine, Tocris Biotrend Chemikalien GmbH, Cologne, Germany, final DHPG concentration: 10 μM) are added and Ca^2+ influx is simultaneously measured for 60 s. The final DMSO concentration amounts to 0.25% and the final Tween 20 content amounts to 0.005%. The data are analysed with Microsoft Excel and GraphPad Prism. The dose-response curves are calculated with non-linear regression and IC50 values are determined. Each data point is determined in triplicate and IC50 values are averaged from a minimum of 2 independent measurements.
Ki values are calculated using the following formula: Ki=IC50/(1+(AGconc./EC50)).
AGconc.=10 μM; EC50 corresponds to the DHPG concentration which is necessary for the semimaximal influx of Ca^2+.

Compound | IC50 (mGluR5 receptor [1]) | Ki (mGluR5 receptor [2]) | inhibition at 1 µM (mGluR5 receptor [1]) | further results
CN(CCN(C)c1nccs1)C(=O)C#Cc1ccccc1 [Example 4, N-Methyl-N-(2-(methyl(thiazol-2-yl)amino)ethyl)-3-phenylpropiolamide] | 57 nM | 5.2 nM | – | –
Cc1cccc(C#CC(=O)N(C)CCN(C)c2nccs2)c1 [Example 7, N-methyl-N-(2-(methyl(thiazol-2-yl)amino)ethyl)-3-(3-methylphenyl)-propiolamide] | 26 nM | 4.8 nM | – | –
CN(CCNC(=O)C#Cc1ccccc1)c1nccs1 [Example 9, N-(2-(methyl(thiazol-2-yl)amino)ethyl)-3-phenylpropiolamide] | 38 nM | 1 nM | – | –
CN(CCN(C)c1nccs1)C(=O)C#Cc1cccc(C#N)c1 [Example 13, N-methyl-N-(2-(methyl(thiazol-2-yl)amino)ethyl)-3-(3-cyanophenyl)-propiolamide] | 87 nM | 20.8 nM | – | –
O=C(C#Cc1ccccc1)NC1CCCN(c2nccs2)C1 (stereo not drawn) [Example 15, 3-Phenyl-N-(1-(thiazol-2-yl)piperidin-3-yl)propiolamide] | 86 nM | 14.4 nM | – | –
CN(CCN(C)c1nccs1)C(=O)C#Cc1cccc(Cl)c1 [Example 18, N-Methyl-N-(2-(methyl(thiazol-2-yl)amino)ethyl)-3-(3-chlorophenyl)-propiolamide] | 20 nM | 4.9 nM | – | –
CN(CCNC(=O)C#Cc1cccc(Cl)c1)c1nccs1 [Example 19, N-(2-(Methyl(thiazol-2-yl)amino)ethyl)-3-(3-chlorophenyl)-propiolamide] | 1.9 nM | 0.4 nM | – | –
CCOC(=O)c1csc(N(C)CCNC(=O)C#Cc2cccc(Cl)c2)n1 [Example 26, N-(2-(methyl-(4-ethoxycarbonylthiazol-2-yl)amino)ethyl)-3-(3-chlorophenyl)-propiolamide] | 86 nM | 3.6 nM | – | –
O=C(C#Cc1cccc(Cl)c1)NC1CCCN(c2nccs2)C1 (stereo not drawn) [Example 32, 3-(3-chlorophenyl)-N-(1-(thiazol-2-yl)piperidin-3-yl)-propiolamide] | 5 nM | 4 nM | – | –
CN(CCNC(=O)C#Cc1cccc(Cl)c1)c1nc(Br)cs1 [Example 33, N-(2-((4-bromothiazol-2-yl)(methyl)amino)ethyl)-3-(3-chlorophenyl)propiolamide] | 13 nM | 10 nM | – | –
CN(c1nccs1)C1CN(C(=O)C#Cc2cccc(Cl)c2)C1 [Example 35, 1-(3-(3-Chlorophenyl)propioloyl)-3-(methyl(thiazol-2-yl)amino)azetidine] | 2.2 nM | 6.5 nM | – | –
Cc1ccc(C#CC(=O)NC2CCN(c3ncc(C)s3)C2)cc1 (stereo not drawn) [Example 73, N-(1-(5-methylthiazol-2-yl)pyrrolidin-3-yl)-3-p-tolylpropiolamide] | – | – | 18% | –
Cc1cccc(C#CC(=O)NC2CCN(c3ncc(C)s3)C2)c1 (stereo not drawn) [Example 74, N-(1-(5-methylthiazol-2-yl)pyrrolidin-3-yl)-3-m-tolylpropiolamide] | – | – | 89% | –
Cc1cnc(N2CCC(NC(=O)C#Cc3ccccc3)C2)s1 (stereo not drawn) [Example 76, N-(1-(5-methylthiazol-2-yl)pyrrolidin-3-yl)-3-phenylpropiolamide] | – | – | 56% | –
Cc1cnc(N2CCC(NC(=O)C#Cc3ccccc3F)C2)s1 (stereo not drawn) [Example 77, 3-(2-fluorophenyl)-N-(1-(5-methylthiazol-2-yl)pyrrolidin-3-yl)propiolamide] | – | – | 21% | –
COc1cccc(C#CC(=O)NC2CCN(c3ncc(C)s3)C2)c1 (stereo not drawn) [Example 78, 3-(3-methoxyphenyl)-N-(1-(5-methylthiazol-2-yl)pyrrolidin-3-yl)propiolamide] | – | – | 26% | –

Compound | IC50 (mGluR5 receptor [1]) | Ki (mGluR5 receptor [2]) | inhibition at 1 µM (mGluR5 receptor [1]) | further results
Cc1cnc(N2CCC(NC(=O)C#Cc3cccc(F)c3)C2)s1 (stereo not drawn) [Example 81, 3-(3-fluorophenyl)-N-(1-(5-methylthiazol-2-yl)pyrrolidin-3-yl)propiolamide] | – | – | 57% | –
Cc1cccc(C#CC(=O)NC2CCN(c3nc(C)c(C)s3)C2)c1 (stereo not drawn) [Example 82, N-(1-(4,5-dimethylthiazol-2-yl)pyrrolidin-3-yl)-3-m-tolylpropiolamide] | – | – | 81% | –
Cc1nc(N2CCC(NC(=O)C#Cc3cccc(C(F)(F)F)c3)C2)sc1C (stereo not drawn) [Example 85, N-(1-(4,5-dimethylthiazol-2-yl)pyrrolidin-3-yl)-3-(3-(trifluoromethyl)phenyl)-propiolamide] | – | – | 41% | –
Cc1cnc(N2CCC(NC(=O)C#Cc3cccc(C(F)(F)F)c3)C2)s1 (stereo not drawn) [Example 87, N-(1-(5-methylthiazol-2-yl)pyrrolidin-3-yl)-3-(3-(trifluoromethyl)phenyl)-propiolamide] | – | – | 23% | –
COc1cccc(C#CC(=O)NC2CCN(c3nc(C)c(C)s3)C2)c1 (stereo not drawn) [Example 90, N-(1-(4,5-dimethylthiazol-2-yl)pyrrolidin-3-yl)-3-(3-methoxyphenyl)propiolamide] | – | – | 34% | –
Cc1cccc(C#CC(=O)NC2CCN(c3nc(C(C)(C)C)cs3)C2)c1 (stereo not drawn) [Example 99, N-(1-(4-tert.-butylthiazol-2-yl)pyrrolidin-3-yl)-3-m-tolylpropiolamide] | – | – | 46% | –
CC(C)(C)c1csc(N2CCC(NC(=O)C#Cc3cccc(Cl)c3)C2)n1 (stereo not drawn) [Example 100, N-(1-(4-tert.-butylthiazol-2-yl)pyrrolidin-3-yl)-3-(3-chlorophenyl)propiolamide] | – | – | 38% | –
Cc1csc(N2CCC(NC(=O)C#Cc3cccc(Cl)c3)C2)n1 (stereo not drawn) [Example 105, 3-(3-chlorophenyl)-N-(1-(4-methylthiazol-2-yl)pyrrolidin-3-yl)propiolamide] | – | – | – | inhibition at 10 µM (mGluR5 receptor [1]): 83%
Cc1csc(N2CCC(NC(=O)C#Cc3cccs3)C2)n1 (stereo not drawn) [Example 106, N-(1-(4-methylthiazol-2-yl)pyrrolidin-3-yl)-3-(thiophen-2-yl)propiolamide] | – | – | – | inhibition at 10 µM (mGluR5 receptor [1]): 38%
Cc1nc(N2CCC(NC(=O)C#Cc3cccc(Cl)c3)C2)sc1C (stereo not drawn) [Example 110, 3-(3-chlorophenyl)-N-(1-(4,5-dimethylthiazol-2-yl)pyrrolidin-3-yl)propiolamide] | – | – | – | inhibition at 10 µM (mGluR5 receptor [1]): 63%
Cc1cnc(N2CCC(NC(=O)C#Cc3cccc(Cl)c3)C2)s1 (stereo not drawn) [Example 112, 3-(3-chlorophenyl)-N-(1-(5-methylthiazol-2-yl)pyrrolidin-3-yl)propiolamide] | – | – | 24% | –
Cc1cnc(N2CCC(NC(=O)C#Cc3cccs3)C2)s1 (stereo not drawn) [Example 113, N-(1-(5-methylthiazol-2-yl)pyrrolidin-3-yl)-3-(thiophen-2-yl)propiolamide] | – | – | – | inhibition at 10 µM (mGluR5 receptor [1]): 22%
Cc1cnc(N2CCC(NC(=O)C#Cc3ccccn3)C2)s1 (stereo not drawn) [Example 119, N-(1-(5-methylthiazol-2-yl)pyrrolidin-3-yl)-3-(pyridin-2-yl)propiolamide] | – | – | – | inhibition at 10 µM (mGluR5 receptor [1]): 20%
CC(C)(C)c1csc(N2CCC(NC(=O)C#Cc3cccnc3)C2)n1 (stereo not drawn) [Example 123, N-(1-(4-tert.-butylthiazol-2-yl)pyrrolidin-3-yl)-3-(pyridin-3-yl)propiolamide] | – | – | 20% | –
CN(CCNC(=O)C#Cc1cccc(Cl)c1)c1ncc(F)s1 [Example 126, 3-(3-Chlorophenyl)-N-(2-((5-fluorothiazol-2-yl)(methyl)amino)ethyl)propiolamide] | 16 nM | – | – | –
